In patent US10696615B2, “Prenylated hydroxystilbenes” (The University of Sydney, priority 2011, dated 2020):

How the values were obtained:
Format in all cases: cell-based, human
TK-10 = experiment: NCI in vitro cancer screen, Renal Cancer; conditions: TK-10
EKVX = experiment: NCI in vitro cancer screen, Non-Small Cell Lung Cancer
HOP-62 = experiment: as above; conditions: HOP-62
OVCAR-8 = experiment: NCI in vitro cancer screen, Ovarian Cancer; conditions: OVCAR-8
HS 578T = experiment: NCI in vitro cancer screen, Breast Cancer
MDA-MB-435 = experiment: NCI in vitro cancer screen, Melanoma; conditions: MDA-MB-435
SK-OV-3 = experiment: NCI in vitro cancer screen, Ovarian Cancer; conditions: SK-OV-3
SK-MEL-2 = experiment: NCI in vitro cancer screen, Melanoma; conditions: SK-MEL-2
RPMI-8226 = experiment: NCI in vitro cancer screen, Leukemia; conditions: RPMI-8226
A498 = experiment: NCI in vitro cancer screen, Renal Cancer; conditions: A498
SF-268 = experiment: NCI in vitro cancer screen, CNS Cancer; conditions: SF-268
LOX IMVI = experiment: NCI in vitro cancer screen, Melanoma
M14 = experiment: NCI in vitro cancer screen, Melanoma; conditions: M14
NCI-H460 = experiment: NCI in vitro cancer screen, Non-Small Cell Lung Cancer; conditions: NCI-H460
786-0 = experiment: NCI in vitro cancer screen, Renal Cancer; conditions: 786-0
CCRF-CEM = experiment: NCI in vitro cancer screen, Leukemia
SR = experiment: NCI in vitro cancer screen, Leukemia
UACC-62 = experiment: NCI in vitro cancer screen, Melanoma; conditions: UACC-62
HCC-2998 = experiment: NCI in vitro cancer screen, Colon Cancer; conditions: HCC-2998
MDA-MB-468 = experiment: NCI in vitro cancer screen, Breast Cancer; conditions: MDA-MB-468
SN12C = experiment: NCI in vitro cancer screen, Renal Cancer
PC-3 = experiment: NCI in vitro cancer screen, Prostate Cancer; conditions: PC-3
T-47D = experiment: NCI in vitro cancer screen, Breast Cancer
SK-MEL-5 = experiment: NCI in vitro cancer screen, Melanoma; conditions: SK-MEL-5
RXF-393 = experiment: NCI in vitro cancer screen, Renal Cancer; conditions: RXF-393
HCT-15 = experiment: NCI in vitro cancer screen, Colon Cancer; conditions: HCT-15
SK-MEL-28 = experiment: NCI in vitro cancer screen, Melanoma; conditions: SK-MEL-28
NCI-H23 = experiment: NCI in vitro cancer screen, Non-Small Cell Lung Cancer; conditions: NCI-H23
[1] = Homo sapiens, read-out: LC50 (the source's name)

Work on `CC(C)=CCOc1cc(O)cc(/C=C/c2ccc(O)c(O)c2)c1` [USYDS4, (E)-3-(3-methyl-2-butenyloxy)-3′,4′,5-trihydroxystilbene] yielded a GI50 (TK-10; Homo sapiens) of 3.87 µM, an LC50 (TK-10; Homo sapiens) of over 100 µM and a TGI (TK-10) of 9.66 µM. For the same compound, the TGI (EKVX) was 59.6 µM, the GI50 (EKVX; Homo sapiens) was 9.55 µM and the CC50 (EKVX; [1]) was over 100 µM. The TGI (HOP-62) was 26.3 µM, the GI50 (HOP-62; Homo sapiens) was 6.49 µM and the CC50 (HOP-62; [1]) was 83.4 µM. It also gave a GI50 (OVCAR-8; Homo sapiens) of 4.94 µM, a CC50 (OVCAR-8; [1]) of over 100 µM and a TGI (OVCAR-8) of 31.1 µM. For the same compound, the TGI (HS 578T) was 7.11 µM, the GI50 (HS 578T; Homo sapiens) was 1 µM and the CC50 (HS 578T; [1]) was over 100 µM. It also gave a GI50 (MDA-MB-435; Homo sapiens) of 0.36 µM, a CC50 (MDA-MB-435; [1]) of over 100 µM and a TGI (MDA-MB-435) of 21.6 µM. For the same compound, the GI50 (SK-OV-3; Homo sapiens) was 8.91 µM, the CC50 (SK-OV-3; [1]) was over 100 µM and the TGI (SK-OV-3) was 57.0 µM. For the same compound, the GI50 (SK-MEL-2; Homo sapiens) was 2.18 µM, the LC50 (SK-MEL-2; Homo sapiens) was 31 µM and the TGI (SK-MEL-2) was 6.57 µM. For the same compound, the GI50 (RPMI-8226; Homo sapiens) was 2.35 µM, the CC50 (RPMI-8226; [1]) was over 100 µM and the TGI (RPMI-8226) was 25.4 µM. It also gave a TGI (A498) of 23.5 µM, a GI50 (A498; Homo sapiens) of 9.07 µM and a CC50 (A498; [1]) of 55.2 µM. For the same compound, the GI50 (SF-268; Homo sapiens) was 3.89 µM, the CC50 (SF-268; [1]) was over 100 µM and the TGI (SF-268) was 23.2 µM. The TGI (LOX IMVI) was 19.3 µM, the GI50 (LOX IMVI; Homo sapiens) was 3.82 µM and the CC50 (LOX IMVI; [1]) was 58.5 µM. For the same compound, the GI50 (M14; Homo sapiens) was 0.91 µM, the CC50 (M14; [1]) was 46.3 µM and the TGI (M14) was 15.4 µM. For the same compound, the GI50 (NCI-H460; Homo sapiens) was 3.65 µM, the CC50 (NCI-H460; [1]) was over 100 µM and the TGI (NCI-H460) was 20.3 µM. For the same compound, the TGI (786-0) was 20.5 µM, the GI50 (786-0; Homo sapiens) was 4.41 µM and the LC50 (50% net cell kill) (786-0; Homo sapiens) was over 100 µM. It also gave a TGI (CCRF-CEM) of over 100 µM, a GI50 (CCRF-CEM; Homo sapiens) of 3.5 µM and a CC50 (CCRF-CEM; [1]) of over 100 µM. It also gave a TGI (SR) of over 100 µM, a GI50 (SR; Homo sapiens) of 0.95 µM and a CC50 (SR; [1]) of over 100 µM. For the same compound, the GI50 (UACC-62; Homo sapiens) was 4.53 µM, the CC50 (UACC-62; [1]) was 44.4 µM and the TGI (UACC-62) was 16.8 µM. For the same compound, the TGI (HCC-2998) was 19.0 µM, the GI50 (HCC-2998; Homo sapiens) was 5.16 µM and the CC50 (HCC-2998; [1]) was 53.4 µM. It also gave a GI50 (MDA-MB-468; Homo sapiens) of 2.53 µM, a CC50 (MDA-MB-468; [1]) of 55.1 µM and a TGI (MDA-MB-468) of 9.51 µM. For the same compound, the TGI (SN12C) was 20.0 µM, the GI50 (SN12C; Homo sapiens) was 3.94 µM and the CC50 (SN12C; [1]) was 74.1 µM. For the same compound, the GI50 (PC-3; Homo sapiens) was 4.47 µM, the CC50 (PC-3; [1]) was 87.9 µM and the TGI (PC-3) was 22.0 µM. The TGI (T-47D) was 6.93 µM, the GI50 (T-47D; Homo sapiens, T47D) was 2.13 µM and the CC50 (T-47D; Homo sapiens, T47D, read-out: LC50 (the source's name)) was over 100 µM. The GI50 (SK-MEL-5; Homo sapiens) was 1.42 µM, the CC50 (SK-MEL-5; [1]) was 30 µM and the TGI (SK-MEL-5) was 8.35 µM. The GI50 (RXF-393; Homo sapiens) was 2.17 µM, the CC50 (RXF-393; [1]) was 46 µM and the TGI (RXF-393) was 15.3 µM. It also gave a TGI (HCT-15) of 34.9 µM, a GI50 (HCT-15; Homo sapiens) of 1.77 µM and a CC50 (HCT-15; [1]) of over 100 µM. It also gave a GI50 (SK-MEL-28; Homo sapiens) of 9.18 µM, an LC50 (SK-MEL-28; Homo sapiens) of 77.9 µM and a TGI (SK-MEL-28) of 27.6 µM. The GI50 (NCI-H23; Homo sapiens) was 3.42 µM, the LC50 (NCI-H23; Homo sapiens) was 81.9 µM and the TGI (NCI-H23) was 20.8 µM.
